Laboratory results from patent EP4644401A1, “ALLULOSE SYRUP WITH IMPROVED PROPERTY” (Samyang Corporation, priority 2022, dated 2024).
Converted amounts (≈) assume the structure as drawn.

Test: Solubility analysis of allulose dimer crystals in water
Format: physicochemical
Conditions: water as solvent, solvent temperature 25°C

solubility: 340 mg/mL (≈ 1890 mM)
Compound: O=C(CO)[C@H](O)[C@H](O)[C@H](O)CO [allulose]
